From ChEMBL document CHEMBL4602677, “Protective Effects of Compounds from Cimicifuga dahurica against Amyloid Beta Production in Vitro and Scopolamine-Induced Memory Impairment in Vivo” (J Nat Prod, 2020) come the findings set out here.

The test system of series [1] is Mus musculus. As to the kind of experiment: Reversal of scopolamine-induced amnesic effect in ICR mouse assessed as step-through latecy time at 1.25 mg/kg, po administered for 7 days followed by scopolamine challenge 30 mins prior to test by passive avoidance test (reference value: 10.80 +/- 4.1 secs). The class given is functional.
For series [2], the system named is Mus musculus. As to the kind of experiment: Cognitive enhancing effect in ICR mouse model of scopolamine-Induced memory impairment assessed as time spent in target quadrant at 1.25 mg/kg, po administered for 7 days and measured on day 6 by Morris water maze test (reference value: 14.48 +/- 1.6 secs). The class given is functional.
For series [3], the system named is CHO. Put plainly: Cytotoxicity against CHO cells stably expressing amyloid precursor protein at 2.5 to 10 uM after 24 hrs by MTT assay. The class given is cell-based, Cricetulus griseus. The note with it: chinese hamster. (Formazan colour is commonly taken as a measure of viable cells.)
Series [4] is described as follows: Inhibition of gamma secretase in CHO cells stably expressing amyloid precursor protein assessed as reduction in Abeta42 levels by ELISA. As to conditions: Cricetulus griseus. It counts as cell-based.
Series [5] relates to Mus musculus. As to the kind of experiment: Cognitive enhancing effect in po dosed ICR mouse model of scopolamine-Induced memory impairment assessed as increase in time spent in target quadrant administered for 7 days and measured on day 6 by Morris water maze test. The class given is functional, organism-based.
The test system of series [6] is Mus musculus. Put plainly: Cognitive enhancing effect in ICR mouse model of scopolamine-Induced memory impairment assessed as escape latency time at 2.5 mg/kg, po administered for 7 days and measured after 60 mins at 5th day of training session by Morris water maze test (reference value: 77.5 +/- 6.6 secs). The class given is functional.
The subject of series [7] is Mus musculus. Put plainly: Memory improvement effect in ICR mouse model of scopolamine-induced memory impairment assessed as discrimination index at 5 mg/kg, po administered for 7 days followed by scopolamine challenge 30 mins prior to test by object recognition test (reference value: 60.14 +/- 2.1%). The class given is functional.
Series [8] concerns Mus musculus. Put plainly: Neuroprotective activity against scopolamine-induced memory impairment in ICR mouse assessed as increase in hippocampal phosphorylated CREB level at 5 mg/kg, po administered for 7 days by Western blot analysis. The class given is functional, organism-based. For orientation: In western blotting, separated proteins are transferred to a membrane and probed.

Series [9] has as its system Mus musculus. As to the kind of experiment: Reversal of scopolamine-induced amnesic effect in ICR mouse assessed as step-through latecy time at 5 mg/kg, po administered for 7 days followed by scopolamine challenge 30 mins prior to test by passive avoidance test (reference value: 10.80 +/- 4.1 secs). The class given is functional.
For series [10], the system named is Mus musculus. As to the kind of experiment: Cognitive enhancing effect in ICR mouse model of scopolamine-Induced memory impairment assessed as time spent in target quadrant at 2.5 mg/kg, po administered for 7 days and measured on day 6 by Morris water maze test (reference value: 14.48 +/- 1.6 secs). It counts as functional.
Series [11] in a line: (§1) Inhibition of BACE1 in CHO cells stably expressing amyloid precursor protein after 24 hrs by Western blot analysis. The class given is cell-based, Cricetulus griseus.
Series [12] relates to CHO. Described as §1. The class given is cell-based. The note with it: Cricetulus griseus.
Series [13] relates to Mus musculus. Put plainly: Reversal of scopolamine-induced amnesic effect in ICR mouse assessed as step-through latecy time at 2.5 mg/kg, po administered for 7 days followed by scopolamine challenge 30 mins prior to test by passive avoidance test (reference value: 10.80 +/- 4.1 secs). The class given is functional.
The test system of series [14] is Mus musculus. As to the kind of experiment: Neuroprotective activity against scopolamine-induced memory impairment in ICR mouse assessed as increase in hippocampal phosphorylated AKT level at 2.5 to 5 mg/kg, po administered for 7 days by Western blot analysis. The class given is functional, organism-based.
Series [15] deals with Mus musculus. As to the kind of experiment: Cognitive enhancing effect in ICR mouse model of scopolamine-Induced memory impairment assessed as escape latency time at 5 mg/kg, po administered for 7 days and measured after 60 mins at 5th day of training session by Morris water maze test (reference value: 77.5 +/- 6.6 secs). The class given is functional.
The test system of series [16] is Mus musculus. Put plainly: Memory improvement effect in ICR mouse model of scopolamine-induced memory impairment assessed as discrimination index at 2.5 mg/kg, po administered for 7 days followed by scopolamine challenge 30 mins prior to test by object recognition test (reference value: 60.14 +/- 2.1%). The class given is functional.
The subject of series [17] is Mus musculus. Put plainly: Cognitive enhancing effect in ICR mouse model of scopolamine-Induced memory impairment assessed as escape latency time at 2.5 mg/kg, po administered for 7 days and measured after 60 mins at first day of training session by Morris water maze test (reference value: 84.5 +/- 4.6 secs). It counts as functional.
Series [18] has as its system Mus musculus. As to the kind of experiment: Neuroprotective activity against scopolamine-induced memory impairment in ICR mouse assessed as increase in cortical phosphorylated AKT level at 5 mg/kg, po administered for 7 days by Western blot analysis. It counts as functional, organism-based.
Series [19] relates to Mus musculus. Put plainly: Suppression of AChE in ICR mouse model of scopolamine-induced memory impairment assessed as reduction in protein activity in hippocampus at 5 mg/kg,po administered for 7 days by Ellman's method. The class given is functional, organism-based.
Series [20] can be described thus: (§2) Inhibition of BACE1 in CHO cells stably expressing amyloid precursor protein assessed as reduction in sAPPbeta expression after 24 hrs by Western blot analysis. It counts as cell-based. As to conditions: Cricetulus griseus.
In series [21] the test system is CHO. Described as §2. The class given is cell-based. As to conditions: Cricetulus griseus.
Series [22] concerns CHO. Put plainly: Inhibition of gamma secretase in CHO cells stably expressing amyloid precursor protein assessed as reduction in Abeta42 levels at 10 uM by ELISA relative to control. It counts as cell-based. As to conditions: Cricetulus griseus.
Series [23] deals with Mus musculus. As to the kind of experiment: Neuroprotective activity against scopolamine-induced memory impairment in ICR mouse assessed as increase in cortical phosphorylated ERK level at 1.25 to 5 mg/kg, po administered for 7 days by Western blot analysis. The class given is functional, organism-based.
Series [24] concerns Mus musculus. As to the kind of experiment: Cognitive enhancing effect in ICR mouse model of scopolamine-induced short-term memory impairment assessed as increase in spontaneous alteration at 5 mg/kg, po administered for 7 days followed by scopolamine challenge 30 mins prior to test by Y-maze test. The class given is functional.
Series [25] has as its system CHO. Put plainly: Inhibition of BACE1 in CHO cells stably expressing amyloid precursor protein assessed as sAPPbeta level at 10 uM after 24 hrs by Western blot analysis relative to control. It counts as cell-based. As to conditions: Cricetulus griseus.
For series [26], the system named is Mus musculus. As to the kind of experiment: Cognitive enhancing effect in ICR mouse model of scopolamine-Induced memory impairment assessed as time spent in target quadrant at 5 mg/kg, po administered for 7 days and measured on day 6 by Morris water maze test (reference value: 14.48 +/- 1.6 secs). The class given is functional.
In series [27] the test system is Mus musculus. As to the kind of experiment: Cognitive enhancing effect in ICR mouse model of scopolamine-Induced memory impairment assessed as escape latency time at 5 mg/kg, po administered for 7 days and measured after 60 mins at first day of training session by Morris water maze test (reference value: 84.5 +/- 4.6 secs). It counts as functional.
The test system of series [28] is Mus musculus. As to the kind of experiment: Neuroprotective activity against scopolamine-induced memory impairment in ICR mouse assessed as increase in hippocampal phosphorylated ERK level at 2.5 to 5 mg/kg, po administered for 7 days by Western blot analysis. The class given is functional, organism-based.
The subject of series [29] is Mus musculus. As to the kind of experiment: Neuroprotective activity against scopolamine-induced memory impairment in ICR mouse assessed as increase in cortical phosphorylated CREB level at 1.25 to 2.5 mg/kg, po administered for 7 days by Western blot analysis. The class given is functional, organism-based.

Activity calls are given as the source filed them. No cut-off for these calls is given here.

For the molecule `CC(=O)O[C@H]([C@H]1C[C@@H](C)[C@H]2[C@@](O)(O1)[C@H](O)[C@@]1(C)C3=CC[C@H]4C(C)(C)[C@@H](O[C@@H]5OC[C@@H](O)[C@H](O)[C@H]5O)CC[C@@]45C[C@@]35CC[C@]21C)C(C)(C)O`, the Time was 14.5 s with Mus musculus [1]; 18.43 s with Mus musculus [2]; 49.4 s in the series on Mus musculus [6]; 46.9 s with Mus musculus [9]; 20.4 s with Mus musculus [10]; 28.8 s with Mus musculus [13]. For the same molecule, the Time in the series with Mus musculus [15] is recorded as 48.1 s; in the series with Mus musculus [17], 80.7 s; in the series on Mus musculus [26], 25.86 s; in the series with Mus musculus [27] it was 76 s. The Activity result in the series with CHO [3] is “Non-Toxic”; in the series with Mus musculus [5], “Dose-dependent effect”; with Mus musculus [7], 68%; in the series with Mus musculus [16] it was 64.29%; in the series on Mus musculus [24] it was 11.6%. The IC50 turned out to be 8.1 µM in series [4], 7.1 µM in series [11] and 6.1 µM in series [20]. Besides, the outcome in the series with Mus musculus [8], with Mus musculus [14], in the series with Mus musculus [18], in the series on Mus musculus [19], with Mus musculus [23] and in the series with Mus musculus [28] was Active. Moreover, the outcome in the series with Mus musculus [29] was Active. Further, the inhibition entry with CHO [12] is “Dose-dependent effect”; in the series on CHO [21], “Dose-dependent effect”; in the series with CHO [22], 61.7%; in the series on CHO [25], 20%.
Consider `CC(=O)O[C@@H]1[C@H](O)[C@@H](O)[C@H](O[C@H]2CC[C@]34C[C@]35CC[C@]3(C)[C@H]6[C@H](C)C[C@H]([C@@H](OC(C)=O)C(C)(C)O)O[C@@]6(O)[C@H](O)[C@@]3(C)C5=CC[C@H]4C2(C)C)O[C@@H]1CO`, for which the Activity result with CHO [3] is “Non-Toxic”. The IC50 in series [4] worked out at 14.4 µM; in series [11], 7.8 µM; in series [20], 8.3 µM. Besides, the inhibition entry in the series on CHO [12] is “Dose-dependent effect”; with CHO [21] it was “Dose-dependent effect”; in the series with CHO [22], 34.7%.
As for `C[C@@H]1C[C@H]([C@@H](O)C(C)(C)O)O[C@H]2C(=O)[C@@]3(C)C4=C(CC[C@]3(C)[C@@H]12)C[C@]12CC[C@H](O1)C(C)(C)[C@@H]2CC4`, the Activity result in the series on CHO [3] is on record as “Non-Toxic”. The IC50 came out at 6.2 µM in [4], 6.2 µM in series [11] and 4.3 µM in series [20]. The inhibition result with CHO [12] is “Dose-dependent effect”; in the series on CHO [21], “Dose-dependent effect”; in the series with CHO [22], 80.6%; with CHO [25], 20%.
Turning to `COC(C)(C)[C@H]1O[C@@]23O[C@@H]1C[C@@H](C)[C@@H]2[C@@]1(C)CC[C@@]24C[C@@]25CC[C@H](O[C@@H]2OC[C@@H](O)[C@H](O)[C@H]2O)C(C)(C)[C@@H]5CC=C4[C@]1(C)[C@H]3O`, the Activity result in the series on CHO [3] was “Non-Toxic”. In addition, the concentration for half-maximal inhibition (IC50) in series [4] turned out to be 10.1 µM; in series [11] it was 8.1 µM; in [20] it was 7.1 µM. The inhibition entry in the series on CHO [12] is “Dose-dependent effect”; in the series with CHO [21], “Dose-dependent effect”; in the series with CHO [22], 48.9%; in the series with CHO [25], 20%.

The term IC50 denotes the midpoint of a concentration-inhibition curve. One may read the inhibition as the relative decrease from the control value, in per cent.
